Experimental data: patent US20230142062A1, “THE APPLICATION OF ALOESIN IN THE PREPARATION OF PRODUCTS FOR PREVENTING OR TREATING OBESITY” (HAINAN MEDICAL UNIVERSITY, priority 2020, published 2023)

What was measured:
Format in all cases: cell-based, mouse
FABP = assay: Real-time quantitative PCR, FABP mRNA in 3T3-L1 adipocytes; conditions: 15 and 30 μM, qPCR
Experimental: (§1) Total RNA extraction reagent (TIANGEN, China) was used to extract total RNA from 3T3-L1 adipocytes. Use 1st strand cDNA kit (Vazyme biotechnology) for reverse transcription into cDNA. SYBR Green PCR Master Mix Kit (Monad, China) reagent and CFX-1000 Touch instrument ([…]) were used to detect the mRNA level of adipocyte browning genes (Ucp-1 and PRDM16) and transcription factors (Fabp, Ppar-γ and C-EBPα). The following conditions were used for reverse transcription: 5 min at 25° C., 15 min at 50° C., and 5 min at 85° C. Amplification: initial denaturation at 95° C. for 30 seconds, followed by denaturation at 95° C. for 5 seconds and 59° C. for 30 seconds (40 cycles). The β-actin was used as a reference gene to standardize the qPCR reaction. The relative expression of genes was calculated based on the average Ct value between samples. Relative expression level=2^{[Cttarget gene−Ct (β-actin)]aloesin treatment group−[Cttarget gene−Ct(β-actin)] 3T3-L1adipocyte]}.

3T3-L1 adipocytes = assay: Lipid accumulation in 3T3-L1 adipocytes (Oil Red O staining); conditions: 15 and 30 μM
Experimental: (§2) Mouse 3T3-L1 preadipocytes were inoculated with high glucose culture medium (H-DMEM, Hyclon) containing 10% fetal bovine serum (Gibco) and antibiotics (100 U/mL penicillin G and […] streptomycin) at a density of 1×10^4 /mL in an incubator at 37° C. and 5% CO2 for 72 hours. In order to induce the differentiation of 3T3-L1 preadipocytes, when 80% cells are fused, on day 0, growth medium (GM) containing 10% fetal bovine serum, 10 μg/mL insulin (sigma), 1 μM dexamethasone (sigma), 0.5 mM isobutyl-1-Methylxanthine (sigma) was added therein. On the second day, the medium was replaced with a high-glycemic medium containing 10% calf serum and 10 μg/mL insulin. On the 10th day, a large number of lipid droplets accumulated during the differentiation of pre-adipocytes.
(§3) The differentiated adipocytes were washed 3 times with PBS, fixed with 10% formaldehyde for 1 hour, then washed 3 times with PBS again, dried for 15 to 30 minutes and stained with Oil Red O working solution for 2 hours. Wash 2 times and 3 times with 60% isopropanol (IPA) and double distilled water respectively. A Zeiss fluorescence microscope (Tokyo, Japan) was used to collect images. 100% IPA extracts Oil Red O, and the absorbance at 490 nm was measured.
After 3T3-L1 preadipocytes were induced to differentiate into adipocytes, aloesin (15 and 30 μM) was added to the adipocytes and cultured for 24 h and 48 h respectively.

adiponectin [1] = assay: ELISA, adiponectin in supernatant of 3T3-L1 adipocytes; conditions: 15 μM, 48 hours
Experimental: (§4) The 3T3-L1 adipocytes were treated with aloesin for 48 hours, then the supernatant was collected, and the levels of adiponectin and IL-1β in the supernatant were detected with an ELISA kit (Proteintech, China). The ELISA reagent operation was carried out according to the manufacturer's instructions.

3T3-L1 preadipocytes [2] = assay: MTT cell viability of 3T3-L1 preadipocytes; conditions: 15 and 30 μM aloesin, 24 h and 48 h
Experimental: as §2
Cell viability was determined by MTT, 3T3-L1 preadipocytes were seeded in 96-well plates at a density of 1×10^4 /mL, cultured in an incubator for 24 hours, and then replaced with a medium respectively containing 10, 15, 30 and 60 μM aloesin to continuously cultivate for 24 h or 48 h. 0.5% MTT was added to the cells, after incubating for 1 hour at 37° C., the MTT solution was removed, and DMSO was added to dissolve. The absorbance at 570 nm was measured using an enzyme-labeled instrument (Molecular Devices, CA, USA). Cell viability (%) is expressed as a percentage relative to untreated control cells.

UCP-1 = assay: Real-time quantitative PCR, UCP-1 mRNA in 3T3-L1 adipocytes; conditions: qPCR
Experimental: as §1

C-EBPα = assay: Real-time quantitative PCR, C-EBPα mRNA in 3T3-L1 adipocytes; conditions: 15 and 30 μM, qPCR
Experimental: as §1

3T3-L1 preadipocytes [3] = assay: Differentiation of preadipocytes after aloesin pretreatment (Oil Red O staining); conditions: pretreated with 15 and 30 μM for 24 h and 48 h, then differentiated for 10 days
Experimental: as §2, §3
3T3-L1 pre-adipocytes were pre-incubated by the aloesin with concentration of 15 and 30 μM for 24 h and 48 h, respectively. […]

adiponectin [4] = assay: Real-time quantitative PCR, adiponectin mRNA in 3T3-L1 adipocytes; conditions: 15 μM, qPCR
PRDM16 = assay: Real-time quantitative PCR, PRDM16 mRNA in 3T3-L1 adipocytes; conditions: qPCR
Experimental: as §1

IL-1β = assay: ELISA, IL-1β in supernatant of 3T3-L1 adipocytes; conditions: 15 and 30 μM, 48 hours
Experimental: as §4

PPAR-γ = assay: Real-time quantitative PCR, PPAR-γ mRNA in 3T3-L1 adipocytes; conditions: 15 and 30 μM, qPCR
Experimental: as §1

## CC(=O)Cc1cc(=O)c2c(C)cc(O)c([C@@H]3O[C@H](CO)[C@@H](O)[C@H](O)[C@H]3O)c2o1 [aloesin]
FABP
  expression of FABP (mRNA): did not affect
3T3-L1 adipocytes; 48 h, compared with the control group
  lipid accumulation of adipocytes: significantly reduce
3T3-L1 adipocytes; treatment for 24 hours
  lipid accumulation in 3T3-L1 adipocytes: did not affect
Adiponectin [1]
  release of adiponectin in adipocytes: enhance
3T3-L1 preadipocytes [2]
  pre-adipocytes viability: did not influence
UCP-1
  expression of browning gene UCP-1 (mRNA): increase
C-EBPα
  expression of the transcription factor C-EBPα (mRNA): increase
3T3-L1 preadipocytes [3]
  differentiation of 3T3-L1 preadipocytes: did not affect
Adiponectin [4]
  mRNA expression of adiponectin in adipocytes: enhance
PRDM16
  expression of browning gene PDRM16 (mRNA): increase
IL-1β
  release of IL-1β in adipocytes: reduce
PPAR-γ
  expression of PPAR-γ (mRNA): did not affect
